Experimental data from the PolyMetriX glass transition set.
± gives the standard deviation of the reports.

SMILES	glass transition temperature
*/C=C/C1CC(*)C(C(=O)Oc2ccccc2)C1 (repeat unit)	72.60 °C
*CCCCCCCCCCCCCCCCOC(=O)NCc1ccc(CNC(=O)O*)cc1 (repeat unit)	47.00 °C
*CC(*)(C)C(=O)OCc1ccc2c(c1)c1ccccc1n2CCCCCCCCCCCC (repeat unit)	25.00 °C
*OC(=O)CCC(=O)OC1COC2C(*)COC12 (repeat unit)	77.00 °C
*c1ccc(OCCN(CCOc2ccc(-c3nc4ccc(Oc5ccc6nc(*)c(-c7ccccc7)nc6c5)cc4nc3-c3ccccc3)cc2)c2ccc(/N=N/c3ccc([N+](=O)[O-])cc3)cc2)cc1 (repeat unit)	199.00 °C
*O[Si](C)(CCC(F)(F)F)CCC(F)(F)C(F)(F)C(F)(F)C(F)(F)C(F)(F)C(F)(F)CC[Si](*)(C)CCC(F)(F)F (repeat unit)	-24.00 °C
*c1cc(C(C)(C)c2ccc(O)cc2)cc(*)c1O (repeat unit)	135.00 °C
*CC(*)c1ccc(C(=O)CCCCC)cc1 (repeat unit)	66.00 °C
*CC(*)OCCOc1ccc(/C=C(\C#N)C(=O)OC)cc1 (repeat unit)	47.00 °C
*CCCCCCNC(=O)CCCCCCCCCCC(=O)N* (repeat unit) [Poly(iminohexamethyleneiminododecanedioyl)]	45.92 ± 0.1 °C
*CCCCCC(=O)Oc1ccc(OC(=O)CCCCCn2c(=O)c3cc4c(=O)n(*)c(=O)c4cc3c2=O)c(C)c1 (repeat unit)	78.00 °C
*CC(C)CO* (repeat unit)	-55.00 °C
*CC(CC(*)(C#N)C#N)c1ccc(F)cc1 (repeat unit)	180.00 °C
*O[Si](C)(C)CC[Si](*)(C)O[Si](C)(C)C (repeat unit)	-89.00 °C
*CC(*)C(=O)NC (repeat unit)	171.00 °C
*CCCCCCCCCCOc1ccc(/C=C/c2ccc(OCCCCCCCCCCOP(=O)(O*)OCCCCCCCCCCOc3ccc(/N=N/c4ccc(Cl)cc4)cc3)cc2)cc1 (repeat unit)	60.00 °C
*Nc1cnc(*)s1 (repeat unit)	139.00 °C
*CCCCCCNC(=O)CCCCCCCCC(=O)N* (repeat unit) [Poly(hexamethylene sebacamide) ]	40 ± 4.1 °C
*CC(*)C(=O)OCCCOc1ccc(C(=O)OCCCC(F)(F)C(F)(F)C(F)(F)C(F)(F)C(F)(F)C(F)(F)F)cc1 (repeat unit)	17.00 °C

Other lines, results leading:

glass transition temperature	SMILES
55.00 °C	*CC(*)(CC(=O)OCc1ccccc1)C(=O)OCc1ccccc1 (repeat unit)
281.00 °C	*c1ccc2c(c1)C(=O)N(c1ccc(C(=O)Nc3ccc(Oc4ccccc4Oc4ccc(NC(=O)c5ccc(N6C(=O)c7ccc(C(*)(C(F)(F)F)C(F)(F)F)cc7C6=O)cc5)cc4)cc3)cc1)C2=O (repeat unit)
287.00 °C	*C(=O)c1ccc2c(c1)C(=O)N(c1cccc(C(=O)Nc3cccc(N4C(=O)c5ccc(*)cc5C4=O)c3)c1)C2=O (repeat unit)
268.00 °C	*c1ccc(N2C(=O)c3ccc(Oc4ccc(C(C)(C)c5cccc(Oc6ccc7c(c6)C(=O)N(*)C7=O)c5)cc4)cc3C2=O)cc1 (repeat unit)
122.00 °C	*OC(=O)c1ccc(Cc2ccc(C(*)=O)cc2)cc1 (repeat unit)
63.00 °C	*CC(C)(CC)COC(=O)c1ccc(C(=O)O*)cc1 (repeat unit)
40.00 °C	*OC(COC(=O)Nc1ccc(Cc2ccc(NC(*)=O)cc2)cc1)c1ccco1 (repeat unit)
55.00 °C	*CC(*)C(=O)Nc1ccc(C(=O)/C=C/c2cccc(Br)c2)cc1 (repeat unit)
353.00 °C	*c1ccc(Oc2ccc(-c3cnc4cc5nc(*)cnc5cc4n3)cc2)cc1 (repeat unit)
186.00 °C	*c1ccc(C(=O)Oc2c(C)cc(C(c3cccnc3)c3cc(C)c(OC(=O)c4ccc(N5C(=O)CC(Nc6ccc(Cc7ccc(NC8CC(=O)N(*)C8=O)cc7)cc6)C5=O)cc4)c(C)c3)cc2C)cc1 (repeat unit)
12.00 °C	*CCSCc1ccc(Cc2ccc(CSCCOC(=O)CCSCc3ccc(Cc4ccc(CSCCC(=O)O*)cc4)cc3)cc2)cc1 (repeat unit)
140.00 °C	*Oc1ccc(OC(=O)c2ccc(C(*)=O)cc2Sc2ccc(Cl)cc2)cc1 (repeat unit)
178.00 °C	*Nc1cc(NC(=O)c2ccc(C(*)=O)cc2)cc(C(=O)Oc2ccc(-c3ccccc3)cc2)c1 (repeat unit)
275.50 °C	*c1ccc(Oc2ccc(C(=O)c3ccc(Oc4ccc(N5C(=O)c6ccc(S(=O)(=O)c7ccc8c(c7)C(=O)N(*)C8=O)cc6C5=O)cc4)cc3)cc2)cc1 (repeat unit)
313.00 °C	*C(=O)c1cc2c(cc1Cl)C(=O)N(c1cccc(N3C(=O)c4cc(*)c(Cl)cc4C3=O)c1)C2=O (repeat unit)
290.00 °C	*c1c(C)cc(-c2cc(C)c(N3C(=O)c4ccc(S(=O)(=O)c5ccc6c(c5)C(=O)N(*)C6=O)cc4C3=O)c(C)c2)cc1C (repeat unit)
116.00 °C	*CC(O)COc1ccc(C(C)(C)c2ccc(OCC(O)COc3ccc(NC(=O)CCCCCC(=O)Nc4ccc(O*)cc4)cc3)cc2)cc1 (repeat unit)
162.00 °C	*Oc1ccc(S(=O)(=O)c2ccc(Oc3ccc(/C=N/c4ccc(Oc5ccc(/N=C/c6ccc(*)cc6)cc5)cc4)cc3)cc2)cc1 (repeat unit)
275.00 °C	*Oc1ccc(C2(c3ccc(OC(=O)c4ccc(C(*)=O)cc4)cc3)CCC3CCCCC3C2)cc1 (repeat unit)
232.00 °C	*Oc1ccc(S(=O)(=O)c2ccc(Oc3c(C)cc(Cc4cc(C)c(*)c(C)c4)cc3C)cc2)cc1 (repeat unit)
90.00 °C	*Oc1ccc(OC(=O)CCCCC(*)=O)cc1 (repeat unit)
206.00 °C	*C/C=C/c1cc(C(C)(C)c2ccc(O)c(/C=C/CC3CC(=O)N(c4ccc(Cc5ccc(N6C(=O)CC(*)C6=O)cc5)cc4)C3=O)c2)ccc1O (repeat unit)
52.00 °C	*c1ccc(OCCCCCCOc2ccc(C3C4C(=O)N(c5ccc(N6C(=O)C7ON(C)C(*)C7C6=O)cc5)C(=O)C4ON3C)cc2)cc1 (repeat unit)
244.00 °C	*c1ccc(-c2ccc(-c3ccc(-c4ccc(-c5ccc6c(c5)C(=O)N(c5ccc(Oc7ccc(N8C(=O)c9ccc(*)cc9C8=O)cc7)cc5)C6=O)cc4)cc3)cc2)cc1 (repeat unit)
37.00 °C	*CC(*)OCCCCCCCCCCCOc1ccc(C(=O)Oc2ccc(C#N)cc2)cc1 (repeat unit)
23.50 °C	*CCC1CC2C(CC(*)C2OC(=O)CCCCCCCCCCOc2ccc(-c3ccc(C#N)cc3)cc2)C1OC(=O)CCCCCCCCCCOc1ccc(-c2ccc(C#N)cc2)cc1 (repeat unit)
261.00 °C	*c1cccc(C(=O)Nc2ccc(Oc3ccc(C(C)(C)c4ccc(Oc5ccc(NC(=O)c6cccc(N7C(=O)c8ccc(-c9cccc%10c9C(=O)N(*)C%10=O)cc8C7=O)c6)cc5)cc4)cc3)cc2)c1 (repeat unit)
